Test results: the NIST ThermoML archive (doi:10.1021/je8004134)
Numbers after ± are expanded uncertainties.

Assay: an = ratio of the nth substance listed, in mol/kg
Settings: 298.15 K, 101 kPa, Liquid; for speed of sound: Sing-around technique in a fixed-path interferometer; for mass density: Vibrating tube method

[Cl][Cu][Cl] [copper chloride] + C[S+](C)[O-]
Settings	mass density [kg/m3]	speed of sound [m/s]
a1 = 0.04097	1100.01 ± 0.33	1485.3 ± 1.2
a1 = 0.05136	1101.21 ± 0.33	1485.5 ± 1.2
a1 = 0.0616	1102.39 ± 0.33	1485.8 ± 1.2
a1 = 0.07134	1103.53 ± 0.33	1486 ± 1.2
a1 = 0.08195	1104.77 ± 0.33	1486.2 ± 1.2
a1 = 0.09202	1105.94 ± 0.33	1486.4 ± 1.2
a1 = 0.1022	1107.13 ± 0.33	1486.6 ± 1.2

C[S+](C)[O-] [dimethyl sulfoxide] + [Cl][Cu][Cl]
a2 = 0
Settings	mass density [kg/m3]	speed of sound [m/s]
–	1095.2 ± 0.33	1484.1 ± 1.2

[O-][Cl+3]([O-])([O-])[O-].[O-][Cl+3]([O-])([O-])[O-].[Zn+2] [zinc perchlorate] + CC(=O)N(C)C
Settings	mass density [kg/m3]	speed of sound [m/s]
a1 = 0.04286	945.119 ± 0.31	1460.8 ± 1.2
a1 = 0.08313	954.115 ± 0.32	1464.9 ± 1.2
a1 = 0.1231	963.055 ± 0.31	1469 ± 1.2
a1 = 0.1625	971.852 ± 0.31	1473.2 ± 1.2
a1 = 0.2013	980.513 ± 0.31	1477.5 ± 1.2
a1 = 0.2396	989.07 ± 0.3	1481.9 ± 1.2
a1 = 0.2771	997.457 ± 0.3	1486.3 ± 1.2
a1 = 0.3148	1005.87 ± 0.3	1490.8 ± 1.2

[Cl][Ni][Cl] [nickel chloride (NiCl2)] + CC(=O)N(C)C
Settings	mass density [kg/m3]	speed of sound [m/s]
a1 = 0.019	938.196 ± 0.25	1457 ± 1.2
a1 = 0.03382	939.871 ± 0.25	1458 ± 1.2
a1 = 0.05743	942.54 ± 0.25	1459.5 ± 1.2
a1 = 0.07634	944.678 ± 0.25	1460.8 ± 1.2
a1 = 0.09563	946.859 ± 0.25	1462 ± 1.2
a1 = 0.114	948.937 ± 0.25	1463.3 ± 1.2
a1 = 0.1327	951.046 ± 0.25	1464.5 ± 1.2
a1 = 0.1513	953.148 ± 0.25	1465.8 ± 1.2

C[S+](C)[O-] [dimethyl sulfoxide] + [Cu+2].[O-][Cl+3]([O-])([O-])[O-].[O-][Cl+3]([O-])([O-])[O-]
a2 = 0
Settings	mass density [kg/m3]	speed of sound [m/s]
–	1095.2 ± 0.38	1484.1 ± 1.2

[Mn+2].[O-][Cl+3]([O-])([O-])[O-].[O-][Cl+3]([O-])([O-])[O-] [manganese (II) perchlorate] + C[S+](C)[O-]
Settings	mass density [kg/m3]	speed of sound [m/s]
a1 = 0.0211	1099.48 ± 0.37	1485.3 ± 1.2
a1 = 0.02843	1100.98 ± 0.37	1485.8 ± 1.2
a1 = 0.037	1102.73 ± 0.37	1486.2 ± 1.2
a1 = 0.04758	1104.9 ± 0.37	1486.8 ± 1.2
a1 = 0.05763	1106.97 ± 0.37	1487.5 ± 1.2
a1 = 0.07358	1110.26 ± 0.37	1488.3 ± 1.2
a1 = 0.09456	1114.62 ± 0.37	1489.7 ± 1.2
a1 = 0.1139	1118.65 ± 0.38	1490.8 ± 1.2
a1 = 0.1337	1122.82 ± 0.38	1492 ± 1.2
a1 = 0.1566	1127.65 ± 0.38	1493.4 ± 1.2
a1 = 0.1754	1131.67 ± 0.38	1494.6 ± 1.2

C[S+](C)[O-] [dimethyl sulfoxide] + [O-][Cl+3]([O-])([O-])[O-].[O-][Cl+3]([O-])([O-])[O-].[Zn+2]
a2 = 0
Settings	mass density [kg/m3]	speed of sound [m/s]
–	1095.2 ± 0.38	1484.1 ± 1.2

C[S+](C)[O-] [dimethyl sulfoxide] + [Ni+2].[O-][Cl+3]([O-])([O-])[O-].[O-][Cl+3]([O-])([O-])[O-]
a2 = 0
Settings	mass density [kg/m3]	speed of sound [m/s]
–	1095.19 ± 0.37	1484.1 ± 1.2

CC(=O)N(C)C [N,N-dimethylethanamide] + [Cl][Co][Cl]
a2 = 0
Settings	mass density [kg/m3]	speed of sound [m/s]
–	936.417 ± 0.25	1455.4 ± 1.2

[Co+2].[O-][Cl+3]([O-])([O-])[O-].[O-][Cl+3]([O-])([O-])[O-] [cobalt(II) perchlorate] + CC(=O)N(C)C
Settings	mass density [kg/m3]	speed of sound [m/s]
a1 = 0.029	942.693 ± 0.32	1459.3 ± 1.2
a1 = 0.04235	945.675 ± 0.32	1461 ± 1.2
a1 = 0.05501	948.505 ± 0.32	1462.7 ± 1.2
a1 = 0.08591	955.413 ± 0.32	1466.7 ± 1.2
a1 = 0.1144	961.778 ± 0.31	1470.4 ± 1.2
a1 = 0.1415	967.838 ± 0.31	1474 ± 1.2
a1 = 0.1692	974.036 ± 0.31	1477.8 ± 1.2
a1 = 0.1973	980.3 ± 0.31	1481.6 ± 1.2
a1 = 0.2214	985.701 ± 0.31	1484.9 ± 1.2

CC(=O)N(C)C [N,N-dimethylethanamide] + [O-][Cl+3]([O-])([O-])[O-].[O-][Cl+3]([O-])([O-])[O-].[Zn+2]
a2 = 0
Settings	mass density [kg/m3]	speed of sound [m/s]
–	936.15 ± 0.31	1455.4 ± 1.2

C[S+](C)[O-] [dimethyl sulfoxide] + [Cl][Co][Cl]
a2 = 0
Settings	mass density [kg/m3]	speed of sound [m/s]
–	1095.19 ± 0.32	1484.1 ± 1.2

[Cl-].[Cl-].[Zn+2] [zinc chloride] + CC(=O)N(C)C
Settings	mass density [kg/m3]	speed of sound [m/s]
a1 = 0.05996	942.244 ± 0.25	1456.9 ± 1.2
a1 = 0.1117	947.615 ± 0.25	1457.9 ± 1.2
a1 = 0.1487	951.455 ± 0.24	1458.7 ± 1.2
a1 = 0.1875	955.473 ± 0.24	1459.5 ± 1.2
a1 = 0.223	959.152 ± 0.24	1460.3 ± 1.2
a1 = 0.2595	962.944 ± 0.24	1461.2 ± 1.2
a1 = 0.2955	966.681 ± 0.24	1462.1 ± 1.2
a1 = 0.3148	968.679 ± 0.24	1462.5 ± 1.2

[Cl][Co][Cl] [cobalt chloride] + CC(=O)N(C)C
Settings	mass density [kg/m3]	speed of sound [m/s]
a1 = 0.02558	938.7 ± 0.25	1456.5 ± 1.2
a1 = 0.05173	941.28 ± 0.25	1457.3 ± 1.2
a1 = 0.07676	943.75 ± 0.25	1458 ± 1.2
a1 = 0.1024	946.279 ± 0.24	1458.9 ± 1.2
a1 = 0.1289	948.892 ± 0.24	1459.8 ± 1.2
a1 = 0.1539	951.355 ± 0.24	1460.7 ± 1.2
a1 = 0.181	954.035 ± 0.24	1461.6 ± 1.2
a1 = 0.2056	956.46 ± 0.24	1462.6 ± 1.2

CC(=O)N(C)C [N,N-dimethylethanamide] + [Cl][Mn][Cl]
a2 = 0
Settings	mass density [kg/m3]	speed of sound [m/s]
–	936.233 ± 0.25	1455.4 ± 1.2

CC(=O)N(C)C [N,N-dimethylethanamide] + [Co+2].[O-][Cl+3]([O-])([O-])[O-].[O-][Cl+3]([O-])([O-])[O-]
a2 = 0
Settings	mass density [kg/m3]	speed of sound [m/s]
–	936.233 ± 0.32	1455.4 ± 1.2

CC(=O)N(C)C [N,N-dimethylethanamide] + [Cl][Cu][Cl]
a2 = 0
Settings	mass density [kg/m3]	speed of sound [m/s]
–	936.304 ± 0.25	1455.4 ± 1.2

[Ni+2].[O-][Cl+3]([O-])([O-])[O-].[O-][Cl+3]([O-])([O-])[O-] [nickel perchlorate] + C[S+](C)[O-]
Settings	mass density [kg/m3]	speed of sound [m/s]
a1 = 0.01259	1097.89 ± 0.37	1485 ± 1.2
a1 = 0.02515	1100.6 ± 0.38	1485.8 ± 1.2
a1 = 0.03816	1103.4 ± 0.38	1486.7 ± 1.2
a1 = 0.051	1106.18 ± 0.38	1487.5 ± 1.2
a1 = 0.06341	1108.88 ± 0.38	1488.4 ± 1.2
a1 = 0.07675	1111.79 ± 0.38	1489.2 ± 1.2
a1 = 0.08797	1114.24 ± 0.38	1490 ± 1.2
a1 = 0.1004	1116.98 ± 0.38	1491 ± 1.2
a1 = 0.1125	1119.67 ± 0.38	1491.7 ± 1.2
a1 = 0.1251	1122.43 ± 0.38	1492.6 ± 1.2
